Measurements from patent US20220098203A1 (priority 2018, published 2022).
Read-outs that look alike come from different tables or passages of the source.

Experiments:
HCT116 MTAP-/- = experiment: Inhibition of cellular proliferation (Cell Titer Glo), HCT116 MTAP-/-; format: cell-based, human; conditions: 4 days, read-out: 4 Day Relative Growth Inhibition (MTAP −/−)
Method: (§1) Test compound impact on cancer cell growth was assessed by treating cancer cells with compound for 4 days and then measuring proliferation using an ATP-based cell proliferation readout (Cell Titer Glo, Promega Corporation).
(§2) In a typical assay an isogenic pair of HCT116 human colon carcinoma cell lines which vary only in MTAP deletion status (HCT116 MTAP+/+ and HCT116 MTAP−/−) were plated in 96-well dishes at appropriate cell density. Following 24 hours, cells were then treated with the candidate MAT2A inhibitor. […] Compound was then transferred to a working stock plate in cell culture media by adding 5 μL of compound in DMSO to 495 μL of cell culture media. This working stock was then added to cells via a further 5-fold dilution, by adding 25 μL of working stock to 100 μL of cells in culture media. Following compound addition, cells were incubated at 37° C./5% CO2 for 4 days.
(§3) The plate was then covered with aluminum foil and shaken for 15 minutes to ensure complete mixing and full cell lysis. […] This luminescence measure was converted to a proliferation index by subtracting from each data point the ATP luminescence signal measured from a bank (no cells) well and dividing by the ATP luminescence signal measured in 0.2% DMSO control well adjusted for signal in blank well.

[1] = test system: SAM in HCT116 MTAP-deleted cells; experiment: Cellular assay of target engagement (SAM), LC-MS/MS; format: cell-based, human; conditions: 72 h, read-out: Cell 72 h SAM Inhibition (MTAP −/−)
Method: Measurement of MAT2A activity in cells was made by direct quantitation of the abundance of the product of its enzymatic activity, SAM. Cancer cells were treated with candidate MAT2A inhibitors for a suitable incubation period, and the cells were then lysed using a reagent which quenched any further enzyme activity. Soluble metabolites including SAM were collected and SAM itself was directly measured from the lysate using quantitative LC-MS/MS.
A typical assay was performed using an HCT116 human colon carcinoma cell line which was genetically engineered to delete the MTAP gene (commercially available from Horizon Discovery). […] Cells were plated in 96-well dishes at appropriate cell density. Following 24 hours, cells were then treated with the candidate MAT2A inhibitor. […] Compound was then transferred to a working stock plate in cell culture media by adding 5 μL of compound in DMSO to 495 μL of cell culture media. This working stock was then added to cells via a further 5-fold dilution, by adding 25 μL of working stock to 100 μL of cells in culture media. Following compound addition, cells were incubated at 37° C./5% CO2 for 72 hrs.
To quantitate SAM levels following compound treatment, cells were gently washed once in ammonium carbonate buffer (75 mM at pH 7.4), placed on dry ice, and lysed with metabolite extraction buffer (80% cold methanol and 20% water (v/v) with acetic acid at 1M final concentration with 200 ng/mL deuterated d3-SAM as internal control). Following centrifugation at 4° C. at 3,200 rpm for 30 minutes, the supernatant was collected and stored at −80° C. until analysis by Liquid Chromatography with tandem Mass Spectrometry (LC-MS/MS). LC-MS/MS analysis was performed using an API6500 Mass Spectrometer (Sciex, Framingham, Mass., USA) operating in positive ion spray mode and equipped with a Waters UPLC Acquity (Waters, Milford, Mass., USA) BEH Amide column.

MAT2A homodimer = biological target: T1, MAT2A homodimer (Homo sapiens, UniProt P31153); experiment: MAT2A biochemical assay (liberated phosphate, PiColorLock Gold); conditions: Table 5a; MAT2A biochemical assay; read-out: Enzyme Inhibition
T1 construct: inferred from the Ni sepharose purification and imidazole elution; made in house; host or cells: SF9 insect cells, recombinant baculovirus (Bac to Bac, pFASTBAC1)
T1 sequence (P31153 whole entry): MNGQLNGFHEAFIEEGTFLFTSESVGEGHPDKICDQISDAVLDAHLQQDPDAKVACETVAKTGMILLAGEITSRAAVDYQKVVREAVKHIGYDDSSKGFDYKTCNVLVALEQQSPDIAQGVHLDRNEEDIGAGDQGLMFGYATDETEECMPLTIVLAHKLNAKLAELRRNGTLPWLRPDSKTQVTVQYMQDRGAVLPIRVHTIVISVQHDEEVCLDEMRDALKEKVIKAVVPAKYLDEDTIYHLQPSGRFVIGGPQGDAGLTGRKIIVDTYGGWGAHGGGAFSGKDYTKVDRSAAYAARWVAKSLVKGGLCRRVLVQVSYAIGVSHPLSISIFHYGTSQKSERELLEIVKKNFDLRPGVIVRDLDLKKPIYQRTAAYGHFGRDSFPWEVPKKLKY
Method in brief: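 Baculovirus/Sf9-expressed, Ni-purified MAT2A homodimer preincubated with compound 60 min at 25 °C, then reacted 60 min at 25 °C with substrate mix of 500 μM ATP and 400 μM L-methionine, pH 7.0 (mix, not final levels). Phosphate released with SAM measured by PiColorLock Gold against phosphate standard curve.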

HCT116 MTAP+/+ = experiment: Inhibition of cellular proliferation (Cell Titer Glo), HCT116 MTAP+/+; format: cell-based; conditions: Homo sapiens, HCT-116, 96 h, Table 5a, 4 days, read-out: 4 Day Relative Growth Inhibition (MTAP +/+)
Method: as §1, §2, §3

[2] = Homo sapiens, HCT-116, 96 h, Table 5a
[3] = Homo sapiens, HCT-116, Table 5a
[4] = Table 6, select pairs of compounds

| Structure (SMILES) | IC50 (HCT116 MTAP-/-; [2]) | IC50 [1, 3] | IC50 (MAT2A homodimer) | IC50 (HCT116 MTAP+/+) | IC50 (HCT116 MTAP-/-; [4]) | IC50 [1, 4] |
| --- | --- | --- | --- | --- | --- | --- |
| [2H]C([2H])([2H])Oc1ccc(N2C(=O)N(c3ccc4nn(CC(F)(F)F)cc4c3)Cc3ccc(OCC(F)F)nc32)cc1 [Example 120, 7-(2,2-difluoroethoxy)-1-(4-methoxy-d3-phenyl)-3-(2-(2,2,2-trifluoroethyl)-2H-indazol-5-yl)-3,4-dihydropyrido[2,3-d]pyrimidin-2(1H)-one] | 100 to 1000 nM | 100 to 1000 nM | < 100 nM | > 1000 nM | – | – |
| CCOc1ccc2c(n1)N(c1ccc(OC)cc1)C(=O)N(c1ccc3c(c1)N(C)CCO3)C2 [Example 122, 7-ethoxy-1-(4-methoxyphenyl)-3-(4-methyl-3,4-dihydro-2H-benzo[b][1,4]oxazin-6-yl)-3,4-dihydropyrido[2,3-d]pyrimidin-2(1H)-one] | 100 to 1000 nM | 100 to 1000 nM | < 100 nM | > 1000 nM | – | – |
| [2H]C([2H])([2H])Oc1ccc(N2C(=O)N(c3ccc4nn(CCC)cc4c3)Cc3ccc(OCC(F)F)nc32)cc1 [Example 123, 7-(2,2-difluoroethoxy)-1-(4-methoxy-d3-phenyl)-3-(2-propyl-2H-indazol-5-yl)-3,4-dihydropyrido[2,3-d]pyrimidin-2(1H)-one] | 100 to 1000 nM | < 100 nM | < 100 nM | > 1000 nM | – | – |
| [2H]C([2H])([2H])Oc1ccc(N2C(=O)N(c3ccc4nn(CC)cc4c3)Cc3ccc(OCC(F)F)nc32)cc1 [Example 124, 7-(2,2-difluoroethoxy)-3-(2-ethyl-2H-indazol-5-yl)-1-(4-methoxy-d3-phenyl)-3,4-dihydropyrido[2,3-d]pyrimidin-2(1H)-one] | < 100 nM | < 100 nM | < 100 nM | > 1000 nM | – | – |
| [2H]C([2H])([2H])Oc1ccc(N2C(=O)N(c3ccc4nn(CCOC)cc4c3)Cc3ccc(OCC(F)F)nc32)cc1 [Example 125, 7-(2,2-difluoroethoxy)-3-(2-(2-methoxyethyl)-2H-indazol-5-yl)-1-(4-methoxy-d3-phenyl)-3,4-dihydropyrido[2,3-d]pyrimidin-2(1H)-one] | < 100 nM | < 100 nM | < 100 nM | > 1000 nM | – | – |
| [2H]C([2H])([2H])Oc1ccc(N2C(=O)N(c3ccc4nn(CCC(F)(F)F)cc4c3)Cc3ccc(OCC(F)F)nc32)cc1 [Example 128, 7-(2,2-difluoroethoxy)-1-(4-methoxy-d3-phenyl)-3-(2-(3,3,3-trifluoropropyl)-2H-indazol-5-yl)-3,4-dihydropyrido[2,3-d]pyrimidin-2(1H)-one] | 100 to 1000 nM | 100 to 1000 nM | < 100 nM | > 1000 nM | – | – |
| [2H]C([2H])([2H])Oc1ccc(N2C(=O)N(c3ccc4nn(CCF)cc4c3)Cc3ccc(OCC(F)F)nc32)cc1 [Example 129, 7-(2,2-difluoroethoxy)-3-(2-(2-fluoroethyl)-2H-indazol-5-yl)-1-(4-methoxy-d3-phenyl)-3,4-dihydropyrido[2,3-d]pyrimidin7-2(1H)-one] | 100 to 1000 nM | 100 to 1000 nM | < 100 nM | > 1000 nM | – | – |
| CCOc1ccc2c(n1)N(c1ccc(OC(F)F)cc1)C(=O)N(c1ccc(OC)cc1)C2 [Example 130, 1-(4-(difluoromethoxy)phenyl)-7-ethoxy-3-(4-methoxyphenyl)-3,4-dihydropyrido[2,3-d]pyrimidin-2(1H)-one] | 100 to 1000 nM | 100 to 1000 nM | < 100 nM | > 1000 nM | – | – |
| CCOc1ccc2c(n1)N(c1ccc(OC(F)F)cc1)C(=O)N(c1ccc3nn(C)cc3c1)C2 [Example 131, 1-(4-(difluoromethoxy)phenyl)-7-ethoxy-3-(2-methyl-2H-indazol-5-yl)-3,4-dihydropyrido[2,3-d]pyrimidin-2(1H)-one] | 100 to 1000 nM | < 100 nM | < 100 nM | 100 to 1000 nM | – | – |
| CCSc1ccc2c(n1)N(c1ccc(OC)cc1)C(=O)N(c1ccc3nn(C)cc3c1)C2 [Example 132, 7-(ethylthio)-1-(4-methoxyphenyl)-3-(2-methyl-2H-indazol-5-yl)-3,4-dihydropyrido[2,3-d]pyrimidin-2(1H)-one] | 100 to 1000 nM | 100 to 1000 nM | < 100 nM | > 1000 nM | 100 to 1000 nM | 100 to 1000 nM |
| Cn1cc2cc(N3Cc4ccc(OCC(F)F)nc4N(c4ccc(Br)cc4)C3=O)ccc2n1 [Example 133, 1-(4-bromophenyl)-7-(2,2-difluoroethoxy)-3-(2-methyl-2H-indazol-5-yl)-3,4-dihydropyrido[2,3-d]pyrimidin-2(1H)-one] | < 100 nM | < 100 nM | < 100 nM | > 1000 nM | – | – |
| [2H]C([2H])([2H])Oc1ccc(N2C(=O)N(c3ccc4ncn(C)c4c3)Cc3ccc(OCC(F)F)nc32)cc1 [Example 135, 7-(2,2-difluoroethoxy)-1-(4-(methoxy-d3)phenyl)-3-(1-methyl-1H-benzo[d]imidazol-6-yl)-3,4-dihydropyrido[2,3-d]pyrimidin-2(1H)-one] | < 100 nM | < 100 nM | < 100 nM | > 1000 nM | – | – |
| [2H]C([2H])([2H])Oc1ccc(N2C(=O)N(c3ccc4nn(C)cc4c3)Cc3ccc(OCC(F)F)nc32)cc1 [Example 136, 7-(2,2-difluoroethoxy)-1-(4-(methoxy-d3)phenyl)-3-(2-methyl-2H-indazol-5-yl)-3,4-dihydropyrido[2,3-d]pyrimidin-2(1H)-one] | < 100 nM | < 100 nM | < 100 nM | 100 to 1000 nM | – | – |
| [2H]C([2H])([2H])Oc1ccc(N2C(=O)N(c3ccc4nn(C)cc4c3)Cc3ccc(OCC)nc32)cc1 [Example 137, 7-ethoxy-1-(4-(methoxy-d3)phenyl)-3-(2-methyl-2H-indazol-5-yl)-3,4-dihydropyrido[2,3-d]pyrimidin-2(1H)-one] | < 100 nM | < 100 nM | < 100 nM | > 1000 nM | – | – |
| CCOc1ccc2c(n1)N(c1ccc(OC)cc1)C(=O)N(c1ccc3ncn(C)c3c1)C2 [Example 138, 7-ethoxy-1-(4-methoxyphenyl)-3-(1-methyl-1H-benzo[d]imidazol-6-yl)-3,4-dihydropyrido[2,3-d]pyrimidin-2(1H)-one] | 100 to 1000 nM | < 100 nM | < 100 nM | > 1000 nM | – | – |
| COc1ccc(N2C(=O)N(c3ccc4ncn(C)c4c3)Cc3ccc(OCC(F)F)nc32)cc1 [Example 139, 7-(2,2-difluoroethoxy)-1-(4-methoxyphenyl)-3-(1-methyl-1H-benzo[d]imidazol-6-yl)-3,4-dihydropyrido[2,3-d]pyrimidin-2(1H)-one] | < 100 nM | < 100 nM | < 100 nM | > 1000 nM | – | – |
| Cn1cnc2ccc(N3Cc4ccc(OCC(F)F)nc4N(c4ccc(OC(F)F)cc4)C3=O)cc21 [Example 140, 7-(2,2-difluoroethoxy)-1-(4-(difluoromethoxy)phenyl)-3-(1-methyl-1H-benzo[d]imidazol-6-yl)-3,4-dihydropyrido[2,3-d]pyrimidin-2(1H)-one] | < 100 nM | < 100 nM | < 100 nM | > 1000 nM | – | – |
| COc1ccc(N2C(=O)N(c3ccc4nn(C)cc4c3)Cc3ccc(OCC(F)F)nc32)cc1 [Example 141, 7-(2,2-difluoroethoxy)-1-(4-methoxyphenyl)-3-(2-methyl-2H-indazol-5-yl)-3,4-dihydropyrido[2,3-d]pyrimidin-2(1H)-one] | < 100 nM | < 100 nM | < 100 nM | 100 to 1000 nM | – | – |
